From patent US9783551B2, “Pyranochromenyl phenol derivative, and pharmaceutical composition for treating metabolic syndrome or inflammatory disease” (GLACEUM, INC., priority 2013, dated 2017) come the findings set out here.

Data set [1] relates to BV2 microglia cells. In words: BV2 cell NO assay (LPS-induced NO production, Griess reagent). The format is cell-based. The conditions noted are these: Mus musculus, BV-2, LPS 1 μg/ml, 24 hours. On the procedure:
(§1) After the pretreatment, 0.5 mg/ml of the MTT (Sigma, M2128) reagent was further added thereto. After the cells were cultured in a 5% CO2 incubator, the supernatant was discarded, 150 μl of DMSO was added and was shaken for 30 minutes, and an ELISA micro plate reader (Bio Rad Laboratories Inc., California, USA, Model 680) was used to measure the absorbance at a wavelength of 540 nm. All the experimental values were calculated as an average value of three repeated experimental values of the cell protection rate for the control group, and an experiment of suppressing the NO production for each compound was carried out at a concentration in which no cytotoxicity was shown.
After the reaction, an ELISA micro plate reader (Bio Rad Laboratories Inc., California, USA, Model 680) was used to measure the absorbance at a wavelength of 540 nm. The suppression rate was calculated as a difference in amount of NO produced between the control group and the experimental group, and as shown in the following Table 6 and FIG. 6, Compounds 4, 5, 15, 16, 18, and the like of the present invention were excellent in the effect of suppressing the production of NO, and the effect is also about 5 times to about 9 times better than that of glabridin.

Data set [2] has as its target PTP1B (Homo sapiens (Human), UniProt P18031). The data set is described as follows: Experiment of PTP1B inhibition (p-NPP dephosphorylation). The format is biochemical. The conditions noted are these: 2 mM p-NPP substrate, 30° C., 30 minutes. From the text:
With respect to PTP1B, the degrees of inhibition (IC50 The half maximal inhibitory concentration) of glabridin, and compounds of Preparation Example 2 (Compound 1), Example 2 (Compound 3), Example 3 (Compound 4), Example 4 (Compound 5), Example 13 (Compound 14), Example 14 (Compound 15), Example 15 (Compound 16), Example 17 (Compound 18), Example 18 (Compound 19) and Example 20 (Compound 21) were compared to each other. For this purpose, the degree of inhibition activity for PTP1B was investigated by using 2 mM p-nitrophenyl phosphate (p-NPP) as a substrate to measure the dephosphorylation degree. First, PTP1B diluted with distilled water was reacted with 2 mM p-nitrophenyl phosphate {p-NPP, 0.1 M NaCl, 1 mM EDTA, 50 mM citrate pH 6.0, and 1 mM dithiothreitol (DTT)} and Compound 1 at various concentrations at 30° C. for 30 minutes, and then the reaction was terminated with a 1 N-sodium hydroxide (NaOH) solution. The absorbance of the samples thus prepared was measured to confirm the inhibition degree (IC50: The half maximal inhibitory concentration) for PTP1B activity according to the concentration of Compound 1. Even for glabridin, Compound 3, Compound 4, Compound 5, Compound 14, Compound 15, Compound 16, Compound 18, Compound 19, and Compound 21, the same measurement was performed.

Data set [3] in a line: Chemical stability in 1% HCl in MeOH (HPLC). The format is physicochemical. The method, then: (§2) The relative chemical stability of glabridin of Preparation Example 1, Example 3 (Compound 4), Example 4 (Compound 5) and Example 14 (Compound 15) were compared with each other. That is, 50 mg of each of glabridin, Compound 4, Compound 5, and Compound 15 was exactly weighed, dissolved in 50 ml of 1% HCl in MeOH and 10 ml of 1% NaOH in MeOH, and the concentrations of the compounds were examined by HPLC at each time level of 0, 8 hrs, 12 hrs, 24 hrs, 48 hrs, and 72 hrs. At this time, the concentrations of the compounds remaining in 1% HCl in MeOH and 1% NaOH in MeOH were determined using an internal standard (Compound 14 of Example 13). That is, 10 mg of Compound 14 was exactly weighed and dissolved in 100 ml of acetonitrile, 9 ml of this solution was mixed with 1 ml of the sample aliquoted at each time level, the mixture was analyzed by HPLC, and the concentrations of the compounds in the internal standard and in the above samples were determined by comparing the initial values.
(§3) The concentrations of the compounds remaining in 1% HCl in MeOH and 1% NaOH in MeOH at each time level are in the following Table 8 and FIG. 7 and the following Table 9 and FIG. 8, respectively.
(§4) The numerical values exceeding 100% in the following Tables 8 and 9 show those measured at a concentration is slightly higher than the initial measurement value, and this is due to the fact that an average value of the measured values was simply shown without considering a statistical error generated during the measurement. Since the measured value of about 95% or more is deemed to have practically no change in concentration, it may be seen that the compounds of the present invention are excellent in chemical stability.

In data set [4] the test system is DIO mice. The data set is described as follows: Organ weights and blood biochemistry of DIO mice after 28 days of administration. The format is in vivo, C57BL/6 mice. The conditions noted are these: 150 mg/kg. The method, then: (§5) Five-week-old female C57BL/6 mice (Narabio Co., Ltd.) were purchased and fed with only high-fat diet for at least 10 weeks to produce diet induced obesity ([…]) mice. Samples were exactly taken from Preparation Example 1 (glabridin) and the compounds of Examples of the present invention (Compounds 1 to 5, 7, 9, 11, 14 to 16, 21, and 23) according to the administration dose and put into Falcon tubes, 3 ml of a 0.5% methyl cellulose aqueous solution was added thereto and a vortex mixer was used to primarily mix the ingredients in a soft manner, and then a homogenizer (30,000 rpm, Ultra-Turrax® T10 Basic, IKA) was used to treat the sample for 3 minutes while 1.5 ml of a 0.5% methyl cellulose aqueous solution was added thereto. The sample thus prepared was administered through oral gavage using a disposable plastic syringe once daily for 28 days (4 weeks). The body weight was measured twice a week while the DIO mice were bred in this manner. Based on the data thus calculated, the anti-obesity effect (%) was calculated according to the equation defined as follows. Anti-Obesity Effect={(Body weight of control group)−(Body weight of experimental group)}/(Body weight of control group)×100
After the experiment was performed for 28 days (4 weeks) as described above, blood was simultaneously taken while the experimental animal was finally sacrificed, and each of the organs (liver, heart, kidney, pancreas, fat tissues and the like) was removed to measure the weight and observe peculiar matters.
In Table 3, { }, ( ) and the like were used in order to differentiate experiments which had been performed at different periods. Experiments without the parenthesis were those simultaneously performed under the same conditions.

A short description of data set [5]: Chemical stability in 1% NaOH in MeOH (HPLC). The format is physicochemical. The method, then:
as §2, §3, §4

Data set [6] deals with DIO mice. The data set is described as follows: Anti-obesity effect for DIO mice (body weight). The format is in vivo, C57BL/6 mice. The note with it: Mus musculus, 672 h; 4 weeks, 150 mg/kg, oral gavage once daily. The method, then: as §5
Data set [7] concerns RAW264.7 macrophages. In words: RAW264.7 macrophage NO assay (LPS-induced NO production, Griess reagent). The format is cell-based. The note with it: for IC50: Mus musculus, RAW264.7, NO production, LPS 1 μg/ml, 24 hours. The method, then: as §1, with “pretreatment,” for “pretreatment, 0.5 mg/ml of”, “reagent at a concentration of 0.5 mg/ml” for “reagent”, “incubator for 4 hours,” for “incubator,”
After the reaction, an ELISA micro plate reader (Bio Rad Laboratories Inc., California, USA, Model 680) was used to measure the absorbance at a wavelength of 540 nm. The suppression rate was calculated as a difference in amount of NO produced between the control group and the experimental group, and as shown in the following Table 7, Compounds 4, 5, 15, 16, 18, and the like of the present invention were excellent in the effect of suppressing the production of NO.
Background: The Griess reaction detects nitrite, a stable product of nitric oxide.

The subject of data set [8] is C2C12 cells. The data set is described as follows: Glucose uptake (2-NBDG) in C2C12 cells. The format is cell-based. The note with it: 24 hours. On the procedure:
In terms of capacity of glucose uptake in C2C12 cells, the compound (Compound 15) of Example 14 of the present invention was compared with the existing Rosiglytazone and Metformin which were used or are currently used as a therapeutic agent for diabetes. The C2C12 cell was cultured in a Dulbecco's modified eagle medium (DMEM) supplemented with 10% fetal bovine serum (FBS), penicillin (120 unit/mL), and streptomycin (75 μg/mL), the medium used for differentiation was a DMEM medium supplemented with 1% horse serum, and the C2C12 cell was cultured in the DMEM medium for 4 days. The cell thus cultured was treated with Compound 15 in a low-glucose, serum-free medium supplemented with 2-[N-(7-nitrobenz-2-oxa-1,3-diazol-4-yl)amino]-2-deoxy-d-glucose (2-NBDG) for 24 hours to measure the glucose absorbance at an excitation wavelength of 485 nm and an emission wavelength of 535 nm using a fluorescent detector. The same experiment was performed on Rosiglytazone and Metformin.

SMILES strings stand for the structures.

Chain of PTP1B (P18031 whole entry, species assumed): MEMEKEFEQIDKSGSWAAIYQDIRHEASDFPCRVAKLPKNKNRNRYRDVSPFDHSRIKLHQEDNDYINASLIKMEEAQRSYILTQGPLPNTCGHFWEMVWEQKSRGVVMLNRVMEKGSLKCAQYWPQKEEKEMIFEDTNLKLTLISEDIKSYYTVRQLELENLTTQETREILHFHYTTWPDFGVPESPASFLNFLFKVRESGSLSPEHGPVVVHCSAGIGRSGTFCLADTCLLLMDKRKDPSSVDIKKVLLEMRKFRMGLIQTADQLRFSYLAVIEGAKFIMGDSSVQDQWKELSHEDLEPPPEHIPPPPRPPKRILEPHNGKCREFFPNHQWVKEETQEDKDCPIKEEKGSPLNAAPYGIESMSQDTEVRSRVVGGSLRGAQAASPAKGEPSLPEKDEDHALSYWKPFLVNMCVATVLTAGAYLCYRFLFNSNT

What is called IC50 is the point on the concentration scale where inhibition reaches its midpoint. Low values mean greater potency, high ones weaker potency. One may read the inhibition in vivo as the drop in the measured response relative to a control, in per cent. Low readings indicate little suppression, high ones strong suppression. Consider `CC1(C)C=Cc2c(ccc3c2OC[C@@H](c2ccc(O)cc2O)C3)O1` [Glabridin, glabridin, reference compound], for which the values for the half-inhibitory concentration (IC50) in data set [1], in data set [2] and in data set [7] were 19.6 µM, 48 µM and 9.3 µM, respectively. In addition, the “concentration of compound remaining” value was 100% in data set [3] (0); 99% in data set [3] (8 h); 94% in data set [3] (24 h); 82% in data set [3] (48 h); 74% in data set [3] (72 h); 100% in data set [5] (0). Besides, the “concentration of compound remaining” value was 71% in data set [5] (8 h), 38% in data set [5] (24 h), 23% in data set [5] (48 h) and 13% in data set [5] (72 h). Further, the “ALT (U/L)” value in data set [4] (experiment without parenthesis) is listed as 41 U/L; in data set [4] ({ } experiment), “{89} U/L”. Further, the results for the “AST (U/L)” value in data set [4] (experiment without parenthesis) and in data set [4] ({ } experiment) were 90 U/L and “{170} U/L”, respectively. The BMI is given as 4.2 in data set [4] (experiment without parenthesis) and “{4.2}” in data set [4] ({ } experiment). For the same molecule, the “FFA (μEq/L)” value was 1520 μEq/L in data set [4] (experiment without parenthesis) and “{1913} μEq/L” in data set [4] ({ } experiment). Besides, the results for the “Fat (g), weight of fat removed around the epididymis and the kidney” value in data set [4] (experiment without parenthesis) and in data set [4] ({ } experiment) were 2.70 g and “{1.92} g”, respectively. Besides, the “LDL” value in data set [4] (experiment without parenthesis) stood at 10 mg/dL. In addition, the “Liver (g), weight of liver” value in data set [4] (experiment without parenthesis) is 1.23 g; in data set [4] ({ } experiment), “{1.48} g”. For the same molecule, the “LDL (mg/dL)” value in data set [4] ({ } experiment) is “{17} mg/dL”. Besides, the inhibition in vivo at 150 mg/kg in data set [6] worked out at 2%.

On to `CCc1ccc(C2COc3c(ccc4c3CCC(C)(C)O4)C2)c(O)c1` (stereo not drawn) [Compound 4, 3-(2-hydroxy-4-ethylphenyl)-8,8-dimethyl-2,3,4,8,9,10-hexahydropyrano [2,3-f] chromene], for which the figures for the IC50 in data set [1], in data set [2] and in data set [7] were 3.7 µM, 2.9 µM and 8.6 µM, respectively. The “concentration of compound remaining” value in data set [3] (0) amounted to 100%; in data set [3] (8 h), 99%; in data set [3] (24 h), 101%; in data set [3] (48 h) it was 101%; in data set [3] (72 h), 100%; in data set [5] (0) it was 100%. Also, the “concentration of compound remaining” value in data set [5] (8 h) is reported as 101%; in data set [5] (24 h) it was 101%; in data set [5] (48 h) it was 99%; in data set [5] (72 h), 100%. Moreover, the stability in words entry in data set [3] (until 3 days (72 hours)) and in data set [5] (until 3 days (72 hours)) was “very stable” throughout. Also, the “ALT (U/L)” value in data set [4] (( ) experiment) is “(58) U/L”. Also, the “AST (U/L)” value in data set [4] (( ) experiment) is “(209) U/L”. For the same molecule, the BMI entry in data set [4] (( ) experiment) is given as “(2.9)”. For the same molecule, in data set [4] (( ) experiment), the “FFA (μEq/L)” value is “(2380) μEq/L”. In addition, in data set [4] (( ) experiment), the “Fat (g), weight of fat removed around the epididymis and the kidney” value is “(1.20) g”. Moreover, the “LDL (mg/dL)” value in data set [4] (( ) experiment) was “(18) mg/dL”. Moreover, the “Liver (g), weight of liver” value in data set [4] (( ) experiment) is listed as “(1.25) g”. Further, the inhibition in vivo at 150 mg/kg in data set [6] is 18%. Moreover, the “effect of suppressing the production of NO” value in data set [7] (RAW264.7 macrophages, in words) is “excellent”.

Take `CN(CCOc1ccc(CC2SC(=O)NC2=O)cc1)c1ccccn1` (stereo not drawn) [Rosiglytazone]: the “2-NBDG uptake (Fold Induction)” value in data set [8] (treatment concentration 50 μM) is listed as 1.94 ± 0.15 Fold Induction.

Take `CN(C)C(=N)N=C(N)N` [Metformin]: the “2-NBDG uptake (Fold Induction)” value in data set [8] (treatment concentration 20 μM) came out at 1.89 ± 0.03 Fold Induction.
